Series [1] concerns patients with Lyme disease, senile type dementia and early Alzheimer's disease. Kind of series: 2-4-dinitrophenol in Lyme disease, senile type dementia and early Alzheimer's disease. As to conditions: minuscule dose. The class given is in vivo, human. An excerpt: Exactly how production and aggregation of the beta amyloid peptide gives rise to the pathology of AD even now not known. Accumulation of aggregated amyloid fibrils, which are believed to be the toxic form of the protein responsible for disrupting the cell's calcium ion homeostasis, induces programmed cell death (apoptosis). It known that Aβ selectively builds up in the mitochondria in the cells of Alzheimer's-affected brains, and it inhibits certain enzyme functions and the utilization of glucose by neurons (Chen X, Yan S D. 2006. “Mitochondrial Aβ: a potential cause of metabolic dysfunction in Alzheimer's disease”. IUBMB Life 58 (12): 686-94.). […] We had to discontinue the study due to federal restriction on such use that is not FDA approved.

The conditions of series [2]: cited from earlier work.
The next series deals with amyloid beta. As to conditions: mice, cited from earlier work.
The conditions of series [3]: cutaneous T-cell lymphoma, 300-400 mg per m^2 per day for eight weeks; cited from earlier work.
For series [4] the following is noted: in vivo; cited from earlier work.
Series [5] concerns patients with depression associated with neurodegenerative diseases. Kind of series: Intranasal ORE ketamine in patients with depression.
The target of series [6] is T1, TNF-alpha (Homo sapiens, UniProt P01375).
T1 construct: endogenous in cells; host or cells: AD patients (in vivo)
T1 sequence (P01375 77-233 limits assumed): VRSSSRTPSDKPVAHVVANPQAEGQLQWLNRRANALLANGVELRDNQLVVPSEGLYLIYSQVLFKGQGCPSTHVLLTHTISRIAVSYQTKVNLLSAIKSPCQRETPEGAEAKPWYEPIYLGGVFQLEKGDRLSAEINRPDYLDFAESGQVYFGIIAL
The experiment in a line: Etanercept administration in AD patients by different routes. Format: in vivo. As to conditions: compared to perispinal, epispinal or interspinal routes. An excerpt: CNS Drugs 2009; 23 (9): 713-725. Richard C. Chou, Michael A. Kane, Shiva Gautam and Sanjay Ghirmire. Tumor Necrosis Factor Inhibition Reduces the Incidence of Alzheimer's disease in Rheumatoid Arthritis Patients. Abstracts of the American College of Rheumatology, Nov. 8, 2010, Atlanta Ga., Presentation No. 640). […] It is transported to the CNS through the CSF, not by direct spread by cervical vertebral venous system as perceived (Shantha T R and Evans J A: Arachnoid Villi in the Spinal Cord, and Their Relationship to Epidural Anesthesia. Anesthesiology 37:543-557, 1972).

Series [7] has as its target T1, TNF-alpha. As to conditions: AD patients; cited from earlier work.
For series [8], the system named is students taking the comprehensive examination and test. The experiment in a line: ORE insulin in students before the comprehensive examination. As to conditions: 2-4 IU each side of the nose to the ORE, 1-2 hours before the examination, compared to controls. The class given is in vivo, human. The protocol:
In a study of students taking the comprehensive examination and test, we prescribed 2-4 IU insulin instilled on each sides of the nose delivered to the ORE in supine position, 1-2 hours before the examination using our delivery device. […] We are planning an expanded study and to analyze statistically to report its positive significance and its use in public speakers (T. R. Shantha, use of olfactory mucosal insulin to enhance the memory and recall before student examinations, written tests and before presentations in front of audience at meetings. Expanded study-under preparation.).

Series [9] deals with patients with impaired cognition, depression, PTSD, stroke, concussion, brain injury. Kind of series: ORE delivery of insulin alone or combined in impaired cognition, depression, PTSD, stroke, concussion and brain injury. Format: in vivo, human. As to conditions: olfactory mucosal delivery; declining memory in the aged, Parkinson's, depression of many causes.
Description: We also provided the home therapy kit with these therapeutic agents and trained them in the method of delivery to ORE, so that they can administer on their own. Some of the patients received hyperbaric oxygen therapy also.
For series [10] the following is noted: cited from earlier work. This is another data set of the same source.
In series [11] the test system is receptors in the hippocampus and the frontal cortex. As to conditions: rodent models, intranasal; cited from earlier work.
For series [12], the system named is adults with AD and amnestic mild cognitive impairment. As to conditions: cited from earlier work.
Series [13] has as its system MCF-7 Human Breast Cancer Cells. As to conditions: MCF-7 cells; cited from earlier work.

The values that follow come from patent US20150073330A1, “ALZHEIMER'S DISEASE TREATMENT WITH MULTIPLE THERAPEUTIC AGENTS DELIVERED TO THE OLFACTORY REGION THROUGH A SPECIAL DELIVERY CATHETER AND IONTOPHORESIS” (Wedge Therapeutics, LLC, priority 2012, published 2015).

Entries after “also recorded” stand apart in the source; their conditions may differ.

For the compound `O=[N+]([O-])c1ccc(O)c([N+](=O)[O-])c1` [2-4-dinitrophenol], the complications result in [1] was “without a single complication”. In [1] (unpublished data 2004), the “pathological changes, memory and cognition” value is “reduces these pathological changes and improves the memory and cognition”.

As to `CNC(=O)Oc1ccc2c(c1)[C@]1(C)CCN(C)[C@@H]1N2C` [Physostigmine Salicylate], the “pH of aqueous solution” value in [2] (0.5% aqueous solution) was 5.8. Also, in series [2], the solubility in water result is reported as “soluble in water”.

Turning to `C=C(c1ccc(C(=O)O)cc1)c1cc2c(cc1C)C(C)(C)CCC2(C)C` [bexarotene], the “ability to sense and respond to odors” value in the series with amyloid beta (after bexarotene treatment) was “improvement in the ability to sense and respond to odors”. The nest making behavior entry with amyloid beta (by 72 hours after the bexarotene treatment) is on record as “began to use paper to make nests”. The “adverse effects of high dose usage” value in series [3] was “hypertriglyceridemia, hypercholesterolemia and decreased high-density lipoprotein levels, as well as hypothyroidism”.

As for `CNC1(c2ccccc2Cl)CCCCC1=O` (stereo not shown) [ketamine], the “pH of the sterile solution for injection” value in series [2] (equivalent of 50 mg ketamine base per milliliter) is given as 3.5 to 5.5. Further, the “crossing of the blood brain barrier” value in series [4] is “easily crosses the BBB”. In series [5] (early cases, especially in dementia), the “depressive condition in early cases” value is on record as “completely ameliorated the depressive condition”. Moreover, the depression result in [5] (intranasal delivery to the olfactory mucosa, neurodegenerative diseases, cancer, senility, Lyme disease and others) is listed as “reduced or relieved the depression”. Also, the “hallucinogenic or other ill effect” value in [5] (micro doses, 500 micrograms through the ORE) is given as “no hallucinogenic or other ill effect; also recorded: no hallucinogenic effect”.

In the case of `N[C@@H](Cc1ccc(O)c(O)c1)C(=O)O` [levodopa], the “share that crosses BBB” value in series [4] is given as 5-10%.

`CNC(=O)Oc1ccc2c(c1)[C@]1(C)CCN(C)[C@@H]1N2C` [physostigmine]: the “crossing of the blood brain barrier” value in [4] is on record as “can cross the blood-brain barrier”.

As for Etanercept, the “effectiveness of cervical epidural and intranasal ORE delivery” value on TNF-alpha [6] is listed as “much more effective”. For the same compound, the “cognitive abilities after perispinal administration” value on TNF-alpha [7] is recorded as “improve the cognitive abilities of AD patients”.

In the case of insulin, in series [8], the “recall from memory during the test” value is “better and more rapid recall from memory”; the test scores entry was “scored higher in test scores”. In addition, the “depression, memory and cognition” value in [9] is “reduced the depression, improved the memory, and increased cognition”. In addition, in series [10] (human studies, olfactory mucosal intranasal), the “time to increased insulin levels in cerebrospinal fluid (CSF)” value was at most 60 min. For the same compound, the “effect on blood glucose” value in series [10] (normal adults and patients with Alzheimer's disease) is recorded as “without altering blood glucose”. Besides, in [11], the “time to binding to receptors in the hippocampus and the frontal cortex” value was at most 60 min. For the same compound, the “story recall and functional status” value in series [12] (3-week daily intranasal insulin, adults with AD and aMCI) was “improved delayed story recall and caregiver-rated functional status”. Besides, in [12] (21 days olfactory mucosal insulin, early stage AD or mild cognitive impairment, vs placebo), the “memory, attention and functioning” value is “enhanced memory, attention, and functioning compared with placebo”. The “enhancement of the activity of methotrexate” value in [13] is reported as 10,000 times.
